According to US8252273B2, “Ultraviolet absorber” (Lead Chemical Co., Ltd., priority 2007, dated 2012):

What was measured:
[1] = Test Example 3: ultraviolet irradiation test (absorption spectra for different irradiation times); type: physicochemical; conditions: conclusion for the compounds
From the text: Ointments (samples B, C, D and E) prepared in Test Example 1 were interposed between two pieces of synthetic quartz plates to prepare measurement samples.
From a light radiated from a 500 W ultra-high pressure mercury vapor lamp (trade name: USH-500D; manufactured by Ushio Inc.), the visible light was removed through a water filter of 5 cm and an ultraviolet transmitting and visible light-absorbing filter (trade name: UV-D33S; manufactured by AGC Techno Glass Co., Ltd.). Then, each measurement sample was irradiated with ultraviolet rays mostly in the UVA and the UVB ranges. Ultraviolet rays irradiation time was set at 0, 5, 10, 15, 20, 25 and 30 minutes. The results of the test are shown in the ultraviolet absorption spectra of FIG. 4 to FIG. 7.

[2] = Test Example 2: solubility test in organic solvents; type: physicochemical; conditions: for Amount of solvent required to dissolve 100 mg of sample / Concentration on dissolving 100 mg of sample: room temperature (23 to 25° C.)
Procedure: Sample a: the O-tolyl-4-methoxycinnamate compound synthesized in Example 1
Sample b: the Compound of Reference Example 2
The amounts of various organic solvents capable of dissolving 100 mg of each sample at room temperature (23 to 25° C.) were measured. For dissolving the sample, a 50 mL polypropylene conical tube (manufactured by CORNING Inc.) was used, and dissolution was carried out by stirring with a shaker (trade name: Vortex G-56; manufactured by Scientific Ind. Inc.) for 1 minute.

**Q.** Which “Ultraviolet absorptive capacity (absorption strength) under ultraviolet irradiation in the UVA and the UVB ranges” value (“Ultraviolet absorptive capacity” for short) [1] does the source give for `COc1ccc(/C=C/C(=O)Oc2ccccc2C)cc1` [Example 1, O-tolyl-4-methoxycinnamate] here?
**A.** increases further

**Q.** What about the melting point of the same molecule?
**A.** 93 to 94 °C

**Q.** And the Amount of solvent required to dissolve 100 mg of sample ([2]; Acetone)?
**A.** < 1 mL

**Q.** What about the “Concentration on dissolving 100 mg of sample” value (shortened to “Concentration”) ([2]; Acetone) of the same molecule?
**A.** (>10)

**Q.** What about the “Amount of solvent required to dissolve 100 mg of sample” value (“Amount of solvent required” for short) ([2]; Ethanol) of the same molecule?
**A.** 10 mL

**Q.** What about the “Concentration” value ([2]; Ethanol) of the same molecule?
**A.** (1)

**Q.** What about the “Amount of solvent required” value ([2]; Ether) of the same molecule?
**A.** 3 mL

**Q.** And the “Concentration” value ([2]; Ether)?
**A.** (3.3)

**Q.** And the Amount of solvent required to dissolve 100 mg of sample ([2]; Ethyl acetate)?
**A.** < 1 mL

**Q.** And the “Concentration” value ([2]; Ethyl acetate)?
**A.** (>10)

**Q.** And the “Amount of solvent required” value ([2]; Isopropyl alcohol)?
**A.** 15 mL

**Q.** What about the “Concentration” value ([2]; Isopropyl alcohol) of the same molecule?
**A.** (0.67)

**Q.** What about the “Amount of solvent required” value ([2]; Methanol) of the same molecule?
**A.** 7.5 mL

**Q.** And the “Concentration” value ([2]; Methanol)?
**A.** (1.3)

**Q.** And the Amount of solvent required to dissolve 100 mg of sample ([2]; N-methylpyrrolidone)?
**A.** < 1 mL

**Q.** And the “Concentration” value ([2]; N-methylpyrrolidone)?
**A.** (>10)

**Q.** What about the “Solubility in organic solvents compared with Reference Example 2” value ([2]; almost all the organic solvents tested) of the same molecule?
**A.** better solubility than that of the compound of Reference Example 2

**Q.** Which “Ultraviolet absorptive capacity” value [1] does the source give for `CCOc1ccc(/C=C/C(=O)Oc2ccccc2C)cc1` [Example 2, O-tolyl-4-ethoxycinnamate] here?
**A.** increases further

**Q.** And the melting point?
**A.** 108 to 109 °C

**Q.** For `CCCCC(CC)COC(=O)C=Cc1ccc(OC)cc1` (stereo not drawn) [Reference Example 1, 4-methoxycinnamic acid-2-ethylhexyl, reference compound], which “Ultraviolet absorptive capacity” value [1] is on record?
**A.** decreases or remains the same

**Q.** For `COc1ccc(C(=O)CC(=O)c2ccc(C(C)(C)C)cc2)cc1` [Reference Example 2, 4-tert-butyl-4′-methoxy-dibenzoylmethane, reference compound], which “Ultraviolet absorptive capacity” value [1] is on record?
**A.** decreases or remains the same
